# Measured values published in US20120302609A1, “Pyrazolines for the Modulation of PKM2” (Dynamix Pharmaceuticals LTD., priority 2011, published 2012).
# Key:
# 786-O (kidney) = experiment: Cell proliferation assay (CellTiter-Glo Luminescent); type: cell-based; details: Homo sapiens, 786-0, 1 mM glucose, 96 hr
# H1299 (lung) = experiment: as above; type: cell-based, human; details: 96 hr
# Procedure: 1. Cells were grown according to the ATCC conditions. 2. Cell feeding (passaging) was timed such that the cells were in exponential growth phase at the time of the assay.
# 3. On day 1, H1299 cells were counted. Cell numbers were adjusted to the desired cell concentration in Media 1: RPMI 1640 Invitrogen 11879020 (that contained no glucose or pyruvate) with 10% FBS, and 1 mM D-Glucose (4 μl of 2.5 M D-glucose G8769 was added in preparing 10 ml RPMI media with 1 mM glucose). A 200 μl of H1299 cell suspension was added to appropriate wells in the 96-well plates, and incubated at 37° C. in the CO2 cell incubator under normal growing conditions for overnight. 4. On day 2, a 100 mM stock concentration of test compounds in 100% DMSO was prepared and serially diluted with 100% DMSO to 33.33 mM, 11.11 mM, and 3.7 mM. A 1:1000 dilution was made to each concentration in media 1 (yielding 0.1% final DMSO concentration). The media was aspirated completely from the cell plate. Each 100 μl of the following solutions (100 μM, 33.33 μM, 11.11 μM, and 3.7 μM) was added to the cells. DMSO in a final concentration of 0.1%, and media without DMSO, were added to the cells and used as a negative control. Empty wells around the experimental wells were filled with PBS. The plate was sealed with parafilm to reduce evaporation. 5. The plate was incubated under normal conditions (5% CO2, and 95% air), for 96 hours at 37° C. 6. On day 6 (after 96 hr incubation), the plate was equilibrated to room temperature for approximately 30 minutes. A 100 μl of CellTiter-Glo Reagent was added in each well of the plate. Contents were mixed for 2 minutes on an orbital shaker to induce cell lysis. The plate was incubated at room temperature for 10 minutes to stabilize luminescent signal. Luminescence was recorded with Flexstation 3.
# Unless noted otherwise, proliferation of control or compound treated H1299 cells was measured using CellTiter-Glo Luminescent assay following 96 hr incubation of the cells with and without test compounds. The AC50 values, shown in Table 3, were coded according to follows: A: <3 μM; B: 3-10 μM; C: 10-20 μM; or D: >20 μM.
# PKM2, human recombinant = target: T1, PKM2, human recombinant (Homo sapiens, UniProt P14618); experiment: PKM2 enzymatic activity assay (Kinase-Glo Plus luminescence); type: biochemical; details: for AC50: 0.1 nM PKM2, 0.1 mM ADP, 0.5 mM PEP, 1 hour, room temperature, read-out: AC50 group; for Emax: 1 h, read-out: Max activity Group; for Emax / Max activity Group: maximum percent activity, luminescence without compound = 0% activity;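 as to Max activity Group: percent increase over no-compound signal after subtracting the no-PKM2 background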
# T1 construct: purchased BPS 50295
# Procedure: PKM2 performs the following enzymatic reaction, where the PKM2 substrates, PEP (phosphoenolpyruvate) and ADP, are converted to pyruvate and ATP as follows:
# All of the enzymatic reactions were conducted in duplicates at room temperature for 1 hour in a 50 μL mixture containing: • PKM2 assay buffer (50 mM Imidazole, pH 7.2; 7 mM MgCl2; 50 mM KCl; 0.01% Tween; • and 0.05% BSA), 0.1 mM ADP, 0.5 mM PEP, 0.1 nM PKM2 enzyme (PKM2, human recombinant (BPS catalog number 50295)) and the indicated test compound. Fructose 1,6 biphosphat e, (FBP (Sigma)) was used as a positive control for activation at concentration of 0.5 mM. After enzymatic reactions, 50 μL of Kinase-Glo® Plus reagent (Promega kit) was added to each well and luminescence was measured using a BioTek Synergy™ 2 microplate reader.
# PKM2 activity assays were performed in duplicates at each concentration. The luminescence data were analyzed using the computer software, GraphPad PRISM®. In the absence of the compound, the luminescence was defined as 0% activity. The percent activity in the presence of each compound was calculated according to the following equation:
# % Activity=[(L−Lb)/(Lt−Lb)−1]×100%
# where L=the luminescence in the presence of the test compound, Lb=the luminescence in the absence of PKM2, and Lt=the luminescence intensity in the absence of the test compound. The % activity values versus a series of compound concentrations were plotted using non-linear regression analysis of Sigmoidal dose-response curve generated with the equation Y=B+(T−B)/1+10^((LogEC50-X)×Hill Slope), where Y=percent activity, B=minimum percent activity, T=maximum percent activity, X=logarithm of compound and Hill Slope=slope factor or Hill coefficient. The AC50 values, shown in Table 2 were determined for the indicated test compounds as the concentration causing a half-maximal percent activity.
# [1] = Homo sapiens, NCI-H1299, 1 mM glucose
# T1 sequence (P14618 whole entry): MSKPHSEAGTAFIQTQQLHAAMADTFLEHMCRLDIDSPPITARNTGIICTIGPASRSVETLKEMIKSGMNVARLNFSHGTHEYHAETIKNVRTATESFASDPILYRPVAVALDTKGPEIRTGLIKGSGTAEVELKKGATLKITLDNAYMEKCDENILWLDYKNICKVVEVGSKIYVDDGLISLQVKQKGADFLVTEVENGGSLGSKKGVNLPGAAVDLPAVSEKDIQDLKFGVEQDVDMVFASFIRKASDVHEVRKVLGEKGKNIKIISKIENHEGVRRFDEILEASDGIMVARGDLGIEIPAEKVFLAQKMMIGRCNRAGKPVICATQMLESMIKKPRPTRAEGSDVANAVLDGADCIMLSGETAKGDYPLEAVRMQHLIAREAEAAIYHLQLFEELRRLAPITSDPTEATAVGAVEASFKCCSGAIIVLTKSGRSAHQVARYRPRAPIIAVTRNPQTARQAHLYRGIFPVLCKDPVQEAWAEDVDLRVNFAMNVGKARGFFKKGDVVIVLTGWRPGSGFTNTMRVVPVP
Compound,AC50 (786-O (kidney)),AC50 (H1299 (lung); [1]),"AC50 (PKM2, human recombinant)",also measured
"COc1ccc(C2CC(c3ccc(NS(=O)(=O)c4cccc(C(F)(F)F)c4)cc3)=NN2C(C)=O)cc1 (stereo not drawn) [Compound 34A, N-(4-(1-Acetyl-5-(4-methoxyphenyl)-4,5-dihydro-1H-pyrazol-3-yl)phenyl)-3-(trifluoromethyl)benzenesulfonamide]",3 to 10 µM,> 20 µM,–,–
"COc1ccc(C2CC(c3ccc(NS(=O)(=O)c4ccc(Cl)cc4)cc3)=NN2C(C)=O)cc1 (racemic) [Compound 26A, N-(4-(1-Acetyl-5-(4-methoxyphenyl)-4,5-dihydro-1H-pyrazol-3-yl)phenyl)-4-chloro benzenesulfonamide]",3 to 10 µM,> 20 µM,≤ 1 µM,"Emax (PKM2, human recombinant): ≤ 130%"
"COc1ccc(C2CC(c3ccc(NS(=O)(=O)c4ccc(OC)cc4)cc3)=NN2C(C)=O)cc1 (single isomer, unassigned) [Compound 39A]",–,> 20 µM,≤ 1 µM,"Max activity Group (PKM2, human recombinant): C (C: ≦130%)"
"COc1ccc(C2CC(c3ccc(NS(=O)(=O)c4cccc(OC)c4)cc3)=NN2C(C)=O)cc1 (single isomer, unassigned) [Compound 29A]",–,> 20 µM,–,–
"CC(=O)N1N=C(c2ccc(NS(=O)(=O)c3ccc(F)cc3)cc2)C[C@@H]1c1ccc(C)cc1 [Compound 41A, (R)—N-(4-(1-Acetyl-5-(p-tolyl)-4,5-dihydro-1H-pyrazol-3-yl)phenyl)-4-fluorobenzene sulfonamide]",3 to 10 µM,10 to 20 µM,–,–
"COc1ccc(C2CC(c3ccc(NS(=O)(=O)c4cccc(F)c4)cc3)=NN2C(C)=O)cc1 (stereo not drawn) [Compound 33A, N-(4-(1-Acetyl-5-(4-methoxyphenyl)-4,5-dihydro-1H-pyrazol-3-yl)phenyl)-3-fluoro benzenesulfonamide]",–,> 20 µM,≤ 1 µM,"Emax (PKM2, human recombinant): 130 to 200%"
"COc1ccc(C2CC(c3ccc(NS(=O)(=O)c4ccc(OC)cc4)cc3)=NN2C(C)=O)cc1 (single isomer, unassigned) [Compound 40A]",–,–,≤ 1 µM,"Max activity Group (PKM2, human recombinant): A (A: ≧200%); AC50 (H1299 (lung); 1 mM glucose): > 20 µM; AC50 (H1299 (lung); Complete media): > 20 µM"
"COc1ccc(C2CC(c3ccc(NS(=O)(=O)c4ccc(Cl)cc4)cc3)=NN2C(C)=O)cc1 (single isomer, unassigned) [Compound 37A]",–,> 20 µM,–,–
COc1ccc(S(=O)(=O)Nc2ccc(C3=NN(C(C)=O)C(c4ccc(F)cc4)C3)cc2)cc1 (stereo not drawn) [Compound 45A],3 to 10 µM,> 20 µM,≤ 1 µM,"Emax (PKM2, human recombinant): ≤ 130%"
"COc1ccc(C2CC(c3ccc(NS(=O)(=O)c4ccc(Cl)cc4)cc3)=NN2C(C)=O)cc1 (single isomer, unassigned) [Compound 38A]",–,–,–,AC50 (H1299 (lung); 1 mM glucose): > 20 µM
"COc1ccc(C2CC(c3ccc(NS(=O)(=O)c4ccc(F)cc4)cc3)=NN2C(C)=O)cc1Cl (stereo not drawn) [Compound 32A, N-(4-(1-Acetyl-5-(3-chloro-4-methoxyphenyl)-4,5-dihydro-1H-pyrazol-3-yl)phenyl)-4-fluorobenzenesulfonamide]",3 to 10 µM,> 20 µM,–,–
"COc1ccccc1C1CC(c2ccc(NS(=O)(=O)c3ccc(F)cc3)cc2)=NN1C(C)=O (stereo not drawn) [Compound 47A, N-(4-(1-Acetyl-5-(2-methoxyphenyl)-4,5-dihydro-1H-pyrazol-3-yl)phenyl)-4-fluoro benzenesulfonamide]",3 to 10 µM,> 20 µM,–,–
"COc1ccc(C2CC(c3ccc(NS(=O)(=O)c4cccc(OC)c4)cc3)=NN2C(C)=O)cc1 (racemic) [Compound 18A, N-(4-(1-Acetyl-5-(4-methoxyphenyl)-4,5-dihydro-1H-pyrazol-3-yl)phenyl)-3-methoxy benzenesulfonamide]",–,> 20 µM,≤ 1 µM,"Emax (PKM2, human recombinant): 130 to 200%"
"COc1cccc([C@H]2CC(c3ccc(NS(=O)(=O)c4ccc(F)cc4)cc3)=NN2C(C)=O)c1 [Compound 42A, (R)—N-(4-(1-Acetyl-5-(3-methoxyphenyl)-4,5-dihydro-1H-pyrazol-3-yl)phenyl)-4-fluoro benzenesulfonamide]",10 to 20 µM,–,–,–
